Test results: US9200269B2, “β-glucuronidase inhibitor” (priority 2007, dated 2015)

Assays:
[1] = Urine catching pad urine addition test, urine odor intensity; set-up: species or system human; conditions: 30° C.
Description: Sensory evaluation of odor was performed by six panelists, the evaluation was based on a six-level odor intensity indication method in which the odor intensity was indicated with an evaluation score of 0 to 5. In the evaluation score, “0” indicates no odor, “1” indicates odor which can be slightly perceived (detection threshold), “2” indicates odor which can be perceived to be urine odor but is weak (perception threshold), “3” indicates odor which can be easily perceived to be urine odor, “4” indicates strong urine odor, and “5” indicates extreme urine odor. The odor intensity was determined at an interval of 0.5.
Specifically, the urine catching pad was prepared by replacing only a water-absorbent polymer in the commercially available urine catching pad “Relief urine catching pad safe absorption (Anshin-Kyusyu)” (manufactured by Kao Corporation) with a water-absorbent polymer wherein the β-glucuronidase inhibitor of the present invention was added. The added amount of the inhibitor to the water-absorbent polymer was 1 wt. % with respect to the water-absorbent polymer, and was equivalent to 1.5 g/m^2 with respect to the urine catching pad.
A urine addition test was performed by using test pieces having dimensions of 19 cm by 7 cm being cut out from the urine catching pad, and using a test piece containing no β-glucuronidase inhibitor as a blank. The test was performed as follows: 30 g of human urine (a mixture of urine from five humans) were added to these test pieces cut out from the urine catching pad, and the urine odor intensity after 1 hour, after 24 hours, and after 48 hours under preservation at 30° C. was evaluated by five panelists based on the six-level odor intensity indication method as described in the item (2) of Reference Example 2.

[2] = system: β-glucuronidase activity derived from microbial cells grown in the putrefied urine; assay: Inhibition of β-glucuronidase activity derived from urine putrefying microbial cell (putrefied urine supernatant, PNPG); assay type: biochemical; conditions: 0.01 wt % in reaction solution; room temperature, 24 hours
Description: A putrefied urine product, which was prepared by collecting 20 mL of a urine sample, dispensing the sample in a bottle which had been preliminarily subjected to γ-ray sterilization without performing any microbe removing operation and storing the resultant at room temperature for 7 days, was used. 1 mL of the putrefied urine was centrifuged at 10,000 rpm for 5 minutes, and separated into a microbial cell and a supernatant. The precipitated microbial cell was suspended in 0.5 mL of saline. The supernatant was subjected to sterilizing through a 0.2-μm filter.
250 μL of a 2 mM PNPG aqueous solution, 100 μL of a 0.5 M phosphate buffer (pH 6.8), […] of a 10 wt % 8-cyclohexadecen-1-one DPG solution and 100 μL of ion exchanged water were mixed in a bottle γ-ray sterilized in advance, and subsequently 50 μL of the putrefied urine supernatant sample in Reference Example 3 were added. The mixture was allowed to react at room temperature. […]
The above-mentioned reaction solution immediately after the start of the reaction and after 24 hours of reaction was diluted with a 0.2 M glycine buffer (pH 10.4) and measured for its absorbance at a wavelength of 400 nm. A value obtained by subtracting the absorbance immediately after the start from the absorbance after 24 hours of reaction was used as an index of a β-glucuronidase activity.

[3] = biological target: T1, β-glucuronidase (Escherichia coli, UniProt P05804); assay: Suppression of production of volatile compound from urine with added β-glucuronidase (GC-MS); assay type: biochemical; conditions: 0.01 wt %; human urine plus enzyme, 25° C., 22 hours
T1 construct: purchased Sigma-Aldrich Corporation
T1 sequence (P05804 whole entry): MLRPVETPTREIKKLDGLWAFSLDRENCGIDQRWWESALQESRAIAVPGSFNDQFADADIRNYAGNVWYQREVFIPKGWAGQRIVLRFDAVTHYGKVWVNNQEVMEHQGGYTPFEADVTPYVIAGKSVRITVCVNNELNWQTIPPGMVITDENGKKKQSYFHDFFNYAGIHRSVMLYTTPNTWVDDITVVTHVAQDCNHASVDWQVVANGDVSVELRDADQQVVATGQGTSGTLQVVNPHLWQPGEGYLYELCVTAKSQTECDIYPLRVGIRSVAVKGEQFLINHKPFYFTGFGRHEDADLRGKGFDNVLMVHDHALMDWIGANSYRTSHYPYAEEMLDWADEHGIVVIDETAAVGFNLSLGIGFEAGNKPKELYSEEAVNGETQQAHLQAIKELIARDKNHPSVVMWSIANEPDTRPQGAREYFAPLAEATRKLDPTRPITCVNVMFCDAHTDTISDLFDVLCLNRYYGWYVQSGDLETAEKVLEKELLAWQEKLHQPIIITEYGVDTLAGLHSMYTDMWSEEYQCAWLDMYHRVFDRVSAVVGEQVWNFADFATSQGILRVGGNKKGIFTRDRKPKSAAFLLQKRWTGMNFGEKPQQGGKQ
Description: 9.9 mL of a human urine sample (a mixture of urine from five humans), from which microorganisms were filtered with a 0.2-μm filter (Millex GV manufactured by Millipore Corporation) were added to a bottle which had been preliminarily subjected to γ-ray sterilization immediately after the collection, and subsequently 0.1 mL of an Escherichia coli-derived β-glucuronidase Type VII-A (purchased from Sigma-Aldrich Corporation) aqueous solution adjusted to 250 units/mL was added and mixed. The mixture was incubated in a thermostat bath at 25° C. and allowed to react for 22 hours. An initial urine sample prepared by adding 0.1 mL of sterilized ion exchanged water as substitution of the enzyme solution, was similarly incubated in a thermostat bath for 22 hours.
9.9 mL of a human urine sample (a mixture of urine from five humans) which had been subjected to a microbe-removing operation with a 0.2-μm filter immediately after the collection and 10 μL of a 10 wt % 8-cyclohexadecen-1-one DPG solution were added to a bottle γ-ray sterilized in advance, and subsequently 0.1 mL of a […] aqueous solution adjusted to 250 units/mL was added and mixed. The mixture was incubated in a thermostat bath at 25° C. and allowed to react for 22 hours. The concentration of 8-cyclohexadecen-1-one in the reaction solution was 0.01 wt %. Further, a product prepared by adding 0.1 mL of an enzyme solution to 9.9 mL of the microbe-removed urine sample was used as a control, a product prepared by adding 0.1 mL of ion exchanged water to 9.9 mL of the microbe-removed urine sample was used as a blank, and the respective products were allowed to react for 22 hours in the same manner.
After the completion of the reaction, to 9 mL of the reaction solution, a benzyl benzoate ethanol solution was added as an internal standard. The mixture was extracted twice with 10 mL of diethyl ether. The extracted solutions were combined and dried over anhydrous magnesium sulfate. After drying, a solid was separated by filtration, and the filtrate was concentrated with a rotary evaporator to prepare a sample for measurement.
Measurement was performed with a gas chromatograph mass spectrometer. The production amount of the volatile compound detected was calculated as a peak area ratio with respect to an internal standard. The production suppression rate for each of volatile components was determined by using the obtained value in accordance with the following equation. Production amount of control=Peak area ratio of control—Peak area ratio of blank Production amount of sample=Peak area ratio of sample−Peak area ratio of blank Production suppression rate (%)=[(Production amount of control −Production amount of sample)/Production amount of control]×100

[4] = six-level score 0 to 5, average of five panelists, inhibitor 1 wt. % of water-absorbent polymer, 30 g human urine

O=C1CCCCCCC=CCCCCCCC1 [8-Cyclohexadecen-1-one, 8-cyclohexadecen-1-one]
Suppression of the increase of urine odor in urine catching pad compared to the blank (result in words) ([1]; after 24 or 48 hours as stated): even after 48 hours, was confirmed
Urine odor intensity After 1 hour [1, 4]: 1.3
Urine odor intensity After 24 hours [1, 4]: 1.5
Urine odor intensity After 48 hours [1, 4]: 1.9
β-glucuronidase activity of putrefied urine supernatant (result in words, FIG. 4) [2]: suppressed the β-glucuronidase activity
Production of phenol-based compounds and indole from urine (result in words) [3]: suppressed the production of all of phenol-based compounds and indole
Production suppression rate (%) of 1,3-Benzenediol [3]: 100%
Production suppression rate (%) of 1,4-Benzenediol [3]: 73%
Production suppression rate (%) of 2-Methoxy-1,3-benzenediol [3]: 73%
Production suppression rate (%) of 4-Vinyl-2-methoxyphenol [3]: 55%
Production suppression rate (%) of 4-Vinylphenol [3]: 57%
Production suppression rate (%) of Indole [3]: 57%
Production suppression rate (%) of Phenol [3]: 70%
Production suppression rate (%) of p-Cresol [3]: 63%
